Values quoted from earlier work in patent US20250352557A1, “COMPOSITIONS FOR PERITONEAL DRUG DELIVERY AND METHODS OF USE THEREOF” (Viramal Limited, priority 2023, published 2025).

Key:
[1] = vaginal administration; previously refractory patients
[2] = not given; remark: listed apart in the source

| SMILES | Average consumption of pain relief tablets (e.g., naproxen) reduced by [1] | Patient satisfaction [1] | Bioavailability with intake of foods high in fat (oral) | Time at which peak-plasma concentrations are reached (oral (Danatrol form)) | Peak-plasma concentrations (oral (Danatrol form), absorbed from the gastrointestinal tract) | Log P [2] |
| --- | --- | --- | --- | --- | --- | --- |
| C#C[C@]1(O)CC[C@H]2[C@@H]3CCC4=Cc5oncc5C[C@]4(C)[C@H]3CC[C@@]21C [Danazol, 17α-Pregna-2,4-dien-20-yno [2,3-d]-isoxazol-17-ol] | 60% | 80% | tripled | 2 to 3 h | 50 to 80 ng/mL |  |
| CC(=O)[C@H]1CC[C@H]2[C@@H]3CCC4=CC(=O)CC[C@]4(C)[C@H]3CC[C@]12C [progesterone] |  |  |  |  |  | 3.82 |
